Values quoted from earlier work, collected in patent US8399704B2, “Methods for salt production” (Colgate-Palmolive Company, priority 2008, dated 2013).

Settings: room temperature, natural partial pressure (3.5×10^−4 atmosphere)

In the case of `O=C=O` [Carbon dioxide], the “maximum concentration of carbon dioxide in water” value is given as “about 1.2×10^−5 M”.
